Results as given in ChEMBL document CHEMBL1201862, “PubChem BioAssay data set” (2004).
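Five concentrations, 48 hours, 96-well plates. GI50 marks 50% less growth.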 Activity calls are given as the source filed them. Cut-off read from the data, not from the text of the source: active = GI50 up to about 1.1 µM and inactive = higher.

Key:
Assay in all cases: inhibition of tumour cell growth, NCI panel, 48 h
786-0 = system: 786-0
A498 = system: A498
A549 = system: A549
ACHN = system: ACHN
BT-549 = system: BT-549
CAKI-1 = system: CAKI-1
CCRF-CEM = system: CCRF-CEM
COLO 205 = system: COLO 205
DU-145 = system: DU-145
EKVX = system: EKVX
HCC 2998 = system: HCC 2998
HCT-116 = system: HCT-116
HCT-15 = system: HCT-15
HL-60 = system: HL-60
HOP-62 = system: HOP-62
HOP-92 = system: HOP-92
HT-29 = system: HT-29
Hs-578T = system: Hs-578T
IGROV-1 = system: IGROV-1
K562 = system: K562
KM12 = system: KM12
LOX IMVI = system: LOX IMVI
M14 = system: M14
MCF7 = system: MCF7
MDA-MB-231 = system: MDA-MB-231
MDA-MB-435 = system: MDA-MB-435
MDA-N = system: MDA-N
MOLT-4 = system: MOLT-4
NCI-H226 = system: NCI-H226
NCI-H23 = system: NCI-H23
NCI-H460 = system: NCI-H460
NCI-H522 = system: NCI-H522
NCI/ADR-RES = system: NCI/ADR-RES
OVCAR-3 = system: OVCAR-3
OVCAR-4 = system: OVCAR-4
OVCAR-5 = system: OVCAR-5
OVCAR-8 = system: OVCAR-8
PC-3 = system: PC-3
RPMI-8226 = system: RPMI-8226
RXF 393 = system: RXF 393
SF-268 = system: SF-268
SF-295 = system: SF-295
SF-539 = system: SF-539
SK-MEL-28 = system: SK-MEL-28
SK-MEL-2 = system: SK-MEL-2
SK-MEL-5 = system: SK-MEL-5
SK-OV-3 = system: SK-OV-3
SN12C = system: SN12C
SNB-19 = system: SNB-19
SNB-75 = system: SNB-75
SR = system: SR
SW-620 = system: SW-620
T47D = system: T47D
TK-10 = system: TK-10
U-251 = system: U-251
UACC-257 = system: UACC-257
UACC-62 = system: UACC-62
UO-31 = system: UO-31
Malme-3M = system: Malme-3M

Measured: GI50

CCc1nc(N)nc(N)c1-c1ccc([N+](C)(C)C)cc1
inactive: 786-0 > 100 µM | A498 > 100 µM | A549 > 100 µM | ACHN > 100 µM | BT-549 > 100 µM | CAKI-1 > 100 µM | CCRF-CEM > 100 µM | COLO 205 > 100 µM | DU-145 > 100 µM | EKVX > 100 µM | HCC 2998 > 100 µM | HCT-116 > 100 µM | HL-60 > 100 µM | HOP-62 > 100 µM | HOP-92 > 100 µM | HT-29 > 100 µM | Hs-578T > 100 µM | IGROV-1 > 100 µM | K562 > 83.4 µM | KM12 > 100 µM | LOX IMVI > 100 µM | M14 > 100 µM | MCF7 > 100 µM | MDA-MB-231 > 100 µM | MDA-MB-435 > 100 µM | MDA-N > 100 µM | MOLT-4 > 100 µM | NCI-H226 > 100 µM | NCI-H23 > 100 µM | NCI-H460 > 90.2 µM | NCI-H522 > 100 µM | NCI/ADR-RES > 100 µM | OVCAR-3 > 100 µM | OVCAR-4 > 100 µM | OVCAR-5 > 100 µM | OVCAR-8 > 100 µM | PC-3 > 100 µM | RPMI-8226 > 100 µM | RXF 393 > 100 µM | SF-268 > 100 µM | SF-295 > 100 µM | SF-539 > 100 µM | SK-MEL-28 > 100 µM | SK-MEL-2 > 100 µM | SK-MEL-5 > 100 µM | SK-OV-3 > 100 µM | SN12C > 100 µM | SNB-19 > 100 µM | SNB-75 > 100 µM | SR > 100 µM | SW-620 > 100 µM | T47D > 100 µM | TK-10 > 100 µM | U-251 > 100 µM | UACC-257 > 100 µM | UACC-62 > 100 µM | UO-31 > 100 µM
> 100 µM: HCT-15

Cc1ccc(C)c(C(=N)c2ccccc2Cc2ccccc2)c1
inactive: 786-0 17 µM | A498 21.7 µM | A549 24.2 µM | ACHN 18.2 µM | BT-549 32.7 µM | CAKI-1 22.6 µM | COLO 205 26.9 µM | DU-145 22.9 µM | EKVX 19 µM | HCC 2998 15.9 µM | HCT-116 12.6 µM | HL-60 18.5 µM | HOP-62 24.3 µM | HOP-92 17 µM | HT-29 12.9 µM | Hs-578T 5.42 µM | IGROV-1 25.6 µM | K562 17.9 µM | KM12 20.2 µM | LOX IMVI 17.3 µM | M14 24.2 µM | MCF7 15.7 µM | MDA-MB-231 22.8 µM | MDA-MB-435 17.9 µM | MDA-N 23 µM | MOLT-4 15.1 µM | Malme-3M 13 µM | NCI-H226 16.4 µM | NCI-H23 26.9 µM | NCI-H460 14.7 µM | NCI-H522 13.2 µM | NCI/ADR-RES 25.4 µM | OVCAR-3 13.3 µM | OVCAR-4 19.4 µM | OVCAR-5 25.9 µM | OVCAR-8 31.7 µM | PC-3 26.7 µM | RPMI-8226 12.3 µM | RXF 393 20 µM | SF-268 18.6 µM | SF-295 20 µM | SF-539 17.9 µM | SK-MEL-28 26.4 µM | SK-MEL-2 15.3 µM | SK-MEL-5 15.5 µM | SK-OV-3 26.8 µM | SN12C 17.3 µM | SNB-19 42.6 µM | SR 19.2 µM | SW-620 31.2 µM | T47D 21 µM | TK-10 47.9 µM | U-251 15.5 µM | UACC-257 22.9 µM | UACC-62 14.2 µM | UO-31 27.3 µM
24.7 µM: HCT-15

COc1cc2ccc(/C=C\[N+](=O)[O-])cc2cc1OC
3.21 µM: HCT-15
inactive: 786-0 1.68 µM | A498 15.5 µM | A549 11.4 µM | ACHN 1.81 µM | BT-549 2.32 µM | CAKI-1 5.06 µM | CCRF-CEM 1.44 µM | COLO 205 4.07 µM | DU-145 2.16 µM | EKVX 4.3 µM | HCC 2998 3.44 µM | HCT-116 2.34 µM | HL-60 1.97 µM | HOP-62 2.83 µM | HOP-92 4.41 µM | HT-29 2 µM | Hs-578T 7.69 µM | IGROV-1 1.97 µM | K562 2.39 µM | KM12 6.85 µM | LOX IMVI 1.79 µM | M14 2.65 µM | MCF7 2.24 µM | MDA-MB-231 2.84 µM | MDA-MB-435 2.86 µM | MDA-N 2.18 µM | MOLT-4 5.09 µM | NCI-H226 27.7 µM | NCI-H23 2.5 µM | NCI-H460 15.7 µM | NCI-H522 1.13 µM | NCI/ADR-RES 6.43 µM | OVCAR-3 3.5 µM | OVCAR-4 3.04 µM | OVCAR-5 13.1 µM | OVCAR-8 3.12 µM | PC-3 2.58 µM | RPMI-8226 1.67 µM | RXF 393 1.87 µM | SF-268 3.36 µM | SF-295 18.2 µM | SF-539 1.97 µM | SK-MEL-28 2.66 µM | SK-MEL-2 2.86 µM | SK-MEL-5 4.76 µM | SK-OV-3 14.3 µM | SN12C 2.37 µM | SNB-19 7.52 µM | SNB-75 2.48 µM | SR 1.98 µM | SW-620 2.65 µM | T47D 2.92 µM | TK-10 3.08 µM | U-251 2.65 µM | UACC-257 3.11 µM | UACC-62 5.15 µM | UO-31 1.82 µM

O=C1OC(c2ccccc2)=NC1c1ccccc1 (stereo not given)
inactive: 786-0 > 100 µM | A498 > 100 µM | A549 > 100 µM | ACHN > 100 µM | BT-549 > 100 µM | CAKI-1 > 100 µM | CCRF-CEM > 100 µM | COLO 205 > 100 µM | DU-145 > 100 µM | EKVX > 100 µM | HCC 2998 > 100 µM | HCT-116 > 100 µM | HL-60 > 100 µM | HOP-62 > 100 µM | HOP-92 > 100 µM | HT-29 > 100 µM | Hs-578T > 100 µM | IGROV-1 > 100 µM | K562 > 100 µM | KM12 > 100 µM | LOX IMVI > 100 µM | M14 > 100 µM | MCF7 > 100 µM | MDA-MB-231 > 100 µM | MDA-MB-435 > 100 µM | MDA-N > 100 µM | MOLT-4 > 100 µM | NCI-H226 > 100 µM | NCI-H23 > 100 µM | NCI-H460 > 100 µM | NCI-H522 > 100 µM | NCI/ADR-RES > 100 µM | OVCAR-3 > 100 µM | OVCAR-4 > 100 µM | OVCAR-5 > 100 µM | OVCAR-8 > 100 µM | PC-3 > 100 µM | RPMI-8226 > 100 µM | RXF 393 > 100 µM | SF-268 > 100 µM | SF-295 > 100 µM | SF-539 > 100 µM | SK-MEL-28 > 100 µM | SK-MEL-5 > 100 µM | SK-OV-3 > 100 µM | SN12C > 100 µM | SNB-19 > 100 µM | SNB-75 > 100 µM | SR > 100 µM | SW-620 > 100 µM | T47D > 100 µM | TK-10 > 100 µM | U-251 > 100 µM | UACC-257 > 100 µM | UACC-62 > 100 µM | UO-31 > 100 µM
> 100 µM: HCT-15
